Measured values published in patent publication US9278922B2 (ABBVIE INC., priority 2009, dated 2016).

These compounds were tested on HCV 1b-Con-1 replicon (assay: HCV 1b-Con-1 replicon assay (luciferase reporter gene, HuH-7 cells)). Details: Hepatitis C virus, Huh-7, luciferase reporter gene activity in the replicon, in the presence of 5% FBS.
Type: cell-based, Hepatitis C virus (HCV) genotype 1b-Con1
Work on `COC(=O)N[C@H](C(=O)N1CCC[C@H]1C(=O)Nc1ccc(CN(Cc2ccc(NC(=O)[C@@H]3CCCN3C(=O)[C@@H](NC(=O)OC)c3ccccc3)cc2)c2ccccc2)cc1)c1ccccc1` [Example 11, Dimethyl (1S,1′S)-2,2′-((2S,2′S)-2,2′-(4,4′-(phenylazanediyl)bis(methylene)bis(4,1-phenylene)bis(azanediyl))bis(oxomethylene)bis(pyrrolidine-2,1-diyl))bis(2-oxo-1-phenylethane-2,1-diyl)dicarbamate] yielded an EC50 of under 1 nM.
With `C=CC[C@H](NC(=O)OC)C(=O)N1CCC[C@H]1C(=O)Nc1ccc(CN(Cc2ccc(NC(=O)[C@@H]3CCCN3C(=O)[C@H](CC=C)NC(=O)OC)cc2)c2ccccc2)cc1` [Example 37, dimethyl [(phenylimino)bis{methanediylbenzene-4,1-diylcarbamoyl(2S)pyrrolidine-2,1-diyl[(4S)-5-oxopent-1-ene-5,4-diyl]}]biscarbamate] the EC50 was 1 to 10 nM.
`COC(=O)N[C@H](C(=O)N1CCC[C@H]1C(=O)Nc1ccc(CN(Cc2ccc(NC(=O)[C@@H]3CCCN3C(=O)[C@H](NC(=O)OC)c3ccccc3)cc2)c2ccccc2)cc1)C(C)C` [Example 70, N-(methoxycarbonyl)-L-valyl-N-(4-{[{4-[(1-{(2R)-2-[(methoxycarbonyl)amino]-2-phenylacetyl}-L-prolyl)amino]benzyl}(phenyl)amino]methyl}phenyl)-L-prolinamide] gave an EC50 of under 1 nM.
`COC(=O)N[C@H](C(=O)N1CC[C@H]1C(=O)Nc1ccc(CN(Cc2ccc(NC(=O)[C@@H]3CCN3C(=O)[C@@H](NC(=O)OC)C(C)(C)C)cc2)c2ccc(F)cc2)cc1)C(C)(C)C` [Example 100, methyl [(1S)-1-{[(2S)-2-{[4-({(4-fluorophenyl)[4-({[(2S)-1-{(2S)-2-[(methoxycarbonyl)amino]-3,3-dimethylbutanoyl}azetidin-2-yl]carbonyl}amino)benzyl]amino}methyl)phenyl]carbamoyl}azetidin-1-yl]carbonyl}-2,2-dimethylpropyl]carbamate] showed an EC50 of 1 to 10 nM.
Work on `COC(=O)N[C@H](C(=O)N1CCC[C@H]1/C=C/c1ccc(CN(Cc2ccc(NC(=O)[C@@H]3CCCN3C(=O)[C@@H](NC(=O)OC)C(C)(C)C)cc2)c2ccccc2)cc1)C(C)(C)C` [Example 149, N-(methoxycarbonyl)-3-methyl-L-valyl-N-(4-{[{4-[(E)-2-{(2S)-1-[N-(methoxycarbonyl)-3-methyl-L-valyl]pyrrolidin-2-yl}ethenyl]benzyl}(phenyl)amino]methyl}phenyl)-L-prolinamide] yielded an EC50 of 10 to 100 nM.
With `COC(=O)N[C@H](C(=O)N1CCC[C@H]1C(=O)Nc1ccc(CN(Cc2ccc(NC(=O)[C@@H]3CCCN3C(=O)[C@@H](NC(=O)OC)C(C)(C)OC)cc2)c2ccccc2)cc1)C(C)(C)OC` [Example 52, dimethyl [(phenylimino)bis{methanediylbenzene-4,1-diylcarbamoyl(2S)pyrrolidine-2,1-diyl[(2S)-3-methoxy-3-methyl-1-oxobutane-1,2-diyl]}]biscarbamate] the EC50 was 1 to 10 nM.
Compound `COC(=O)N[C@H](C(=O)N1C[C@H](O)C[C@H]1C(=O)Nc1ccc(CN(Cc2ccc(NC(=O)[C@@H]3C[C@@H](O)CN3C(=O)[C@@H](NC(=O)OC)C(C)(C)C)cc2)c2ccccc2)cc1)C(C)(C)C` [Example 48] has an EC50 of 1 to 10 nM.
For `COC(=O)N[C@H](C(=O)N1CCC[C@H]1C(=O)Nc1ccc(CN(Cc2ccc3[nH]c([C@@H]4CCCN4C(=O)[C@@H](NC(=O)OC)C(C)(C)O)nc3c2)c2ccc(F)cc2)cc1)C(C)(C)O` [Example 99, 3-hydroxy-N-(methoxycarbonyl)-L-valyl-N-[4-({(4-fluorophenyl)[(2-{(2S)-1-[3-hydroxy-N-(methoxycarbonyl)-L-valyl]pyrrolidin-2-yl}-1H-benzimidazol-5-yl)methyl]amino}methyl)phenyl]-L-prolinamide], the EC50 was under 1 nM.
`COC(=O)N[C@H](C(=O)N1CCC[C@H]1c1nc2cc(CN(Cc3ccc4[nH]c([C@@H]5CCCN5C(=O)[C@@H](NC(=O)OC)[C@H]5CCOC5)nc4c3)c3ccccc3)ccc2[nH]1)[C@H]1CCOC1` [Example 78, dimethyl {(phenylimino)bis[methanediyl-1H-benzimidazole-5,2-diyl(2S)pyrrolidine-2,1-diyl{(1S)-2-oxo-1-[(3R)-tetrahydrofuran-3-yl]ethane-2,1-diyl}]}biscarbamate] was tested, and the EC50 was under 1 nM.
Work on `COC(=O)N[C@H](C(=O)N1C[C@@H]2C[C@@H]2[C@H]1C(=O)Nc1ccc(CN(Cc2ccc(NC(=O)[C@@H]3[C@H]4C[C@H]4CN3C(=O)[C@@H](NC(=O)OC)C(C)(C)C)cc2)c2ccc(F)cc2)cc1)C(C)(C)C` [Example 109, methyl [(1S)-1-{[(1S,2S,5R)-2-{[4-({(4-fluorophenyl)[4-({[(1S,2S,5R)-3-{(2S)-2-[(methoxycarbonyl)amino]-3,3-dimethylbutanoyl}-3-azabicyclo[3.1.0]hex-2-yl]carbonyl}amino)benzyl]amino}methyl)phenyl]carbamoyl}-3-azabicyclo[3.1.0]hex-3-yl]carbonyl}-2,2-dimethylpropyl]carbamate] yielded an EC50 of 10 to 100 nM.
Compound `COC(=O)N[C@H](C(=O)N1CCC[C@H]1C(=O)Nc1ccc(CN(Cc2ccc(NC(=O)[C@@H]3CCCN3C(=O)[C@@H](NC(=O)OC)C(C)(C)C)cc2)[C@@H]2CCOC2)cc1)C(C)(C)C` [Example 44, dimethyl ([(3R)-tetrahydrofuran-3-ylimino]bis{methanediylbenzene-4,1-diylcarbamoyl(2S)pyrrolidine-2,1-diyl[(2S)-3,3-dimethyl-1-oxobutane-1,2-diyl]})biscarbamate] has an EC50 of 10 to 100 nM.
Work on `CCN(CC)[C@@H](C(=O)N1CCC[C@H]1C(=O)Nc1ccc(CN(Cc2ccc(NC(=O)[C@@H]3CCCN3C(=O)[C@@H](c3ccccc3)N(CC)CC)cc2)c2ccccc2)cc1)c1ccccc1` [Example 21, (R,2S,2′S)-N,N′-(4,4′-(phenylazanediyl)bis(methylene)bis(4,1-phenylene))bis(1-((R)-2-(diethylamino)-2-phenylacetyl)pyrrolidine-2-carboxamide)] yielded an EC50 of under 1 nM.
`COC(=O)N[C@H](C(=O)N1CCC[C@H]1C(=O)Nc1ccc(CN(Cc2ccc3[nH]c([C@@H]4CCCN4C(=O)[C@@H](NC(=O)OC)C(C)C)nc3c2)c2ccccc2)cc1)C(C)C` [Example 20] gave an EC50 of under 1 nM.
Compound `O=C(Nc1ccc(CN(Cc2ccc(NC(=O)[C@@H]3CCCN3C(=O)C(c3ccccc3)N3CCC(F)(F)CC3)cc2)c2ccc(F)cc2)cc1)[C@@H]1CCCN1C(=O)C(c1ccccc1)N1CCC(F)(F)CC1` (single isomer, unassigned) [Example 139] has an EC50 of 1 to 10 nM.
`COCCN(Cc1ccc(NC(=O)[C@@H]2CCCN2C(=O)[C@@H](NC(=O)OC)C(C)(C)C)cc1)Cc1ccc(NC(=O)[C@@H]2CCCN2C(=O)[C@@H](NC(=O)OC)C(C)(C)C)cc1` [Example 32, dimethyl ([(2-methoxyethyl)imino]bis{methanediylbenzene-4,1-diylcarbamoyl(2S)pyrrolidine-2,1-diyl[(2S)-3,3-dimethyl-1-oxobutane-1,2-diyl]})biscarbamate] was tested, and the EC50 was 100 to 250 nM.
With `CCN(CC)[C@@H](C(=O)N1CCC[C@H]1c1nc2cc(CN(Cc3ccc4[nH]c([C@@H]5CCCN5C(=O)[C@@H](c5ccccc5)N(CC)CC)nc4c3)c3ccccc3)ccc2[nH]1)c1ccccc1` [Example 65, N,N-bis[(2-{(2S)-1-[(2R)-2-(diethylamino)-2-phenylacetyl]pyrrolidin-2-yl}-1H-benzimidazol-5-yl)methyl]aniline] the EC50 was under 1 nM.
`CC[C@H](C)[C@H](NC(=O)OC)C(=O)N1CCC[C@H]1C(=O)Nc1ccc(CN(Cc2ccc(NC(=O)[C@@H]3CCCN3C(=O)[C@@H](NC(=O)OC)[C@@H](C)CC)cc2)c2ccccc2)cc1` [Example 9] was tested, and the EC50 was under 1 nM.
`COC(=O)N[C@@H](C)C(=O)N1CCC[C@H]1C(=O)Nc1ccc(CN(Cc2ccc(NC(=O)[C@@H]3CCCN3C(=O)[C@H](C)NC(=O)OC)cc2)c2ccccc2)cc1` [Example 8, Dimethyl (2S,2′S)-1,1′-((2S,2′S)-2,2′-(4,4′-(phenylazanediyl)bis(methylene)bis(4,1-phenylene)bis(azanediyl))bis(oxomethylene)bis(pyrrolidine-2,1-diyl))bis(1-oxopropane-2,1-diyl)dicarbamate] was tested, and the EC50 was 1 to 10 nM.
Work on `COC(=O)N[C@H](C(=O)N1CCC[C@H]1C(=O)Nc1ccc(CN(Cc2ccc(NC(=O)[C@@H]3CCCN3C(=O)[C@@H](NC(=O)OC)C(C)(C)C)cc2)c2ccon2)cc1)C(C)(C)C` [Example 33, dimethyl[(isoxazol-3-ylimino)bis{methanediylbenzene-4,1-diylcarbamoyl(2S)pyrrolidine-2,1-diyl[(2S)-3,3-dimethyl-1-oxobutane-1,2-diyl]}]biscarbamate] yielded an EC50 of 1 to 10 nM.
`COC(=O)N[C@H](C(=O)N1[C@H](C(=O)Nc2ccc(CN(Cc3ccc(NC(=O)[C@@H]4C[C@@H]5CCC[C@@H]5N4C(=O)[C@@H](NC(=O)OC)C(C)(C)C)cc3)c3ccc(F)cc3)cc2)C[C@@H]2CCC[C@@H]21)C(C)(C)C` [Example 123, dimethyl ([(4-fluorophenyl)imino]bis{methanediylbenzene-4,1-diylcarbamoyl(2S,3aS,6aS)hexahydrocyclopenta[b]pyrrole-2,1(2H)-diyl[(2S)-3,3-dimethyl-1-oxobutane-1,2-diyl]})biscarbamate] gave an EC50 of under 1 nM.
`CN(C)C(=O)N[C@H](C(=O)N1CCC[C@H]1C(=O)Nc1ccc(CN(Cc2ccc(NC(=O)[C@@H]3CCCN3C(=O)[C@@H](NC(=O)N(C)C)C(C)(C)C)cc2)c2ccccc2)cc1)C(C)(C)C` [Example 80, (2S,2′S)-N,N′-[(phenylimino)bis(methanediylbenzene-4,1-diyl)]bis(1-{(2S)-2-[(dimethylcarbamoyl)amino]-3,3-dimethylbutanoyl}pyrrolidine-2-carboxamide)] was tested, and the EC50 was 10 to 100 nM.
In the case of `COC(=O)N[C@H](C(=O)N1CCC[C@H]1C(=O)Nc1ccc(CN(Cc2ccc(NC(=O)[C@@H]3CCCN3C(=O)[C@@H](NC(=O)OC)C(C)C)cc2)c2ccccc2)cc1)C(C)C` [Example 1], the EC50 is reported as under 1 nM.
Compound `COC(=O)N[C@H](C(=O)N1CCC[C@H]1C(=O)Nc1ccc(CN(Cc2ccc(NC(=O)[C@@H]3CCCN3C(=O)[C@@H](NC(=O)OC)C(C)(C)C)cc2)c2nccs2)cc1)C(C)(C)C` [Example 19] has an EC50 of 10 to 100 nM.
